# Data as given in the supplement of paper PMC11061612.
# Legend:
# [1] = tested on: EB-3 (Burkitt's Lymphoma); assay: Bliss excess, mean over the matrix (fraction); higher = more synergy
# Summary of the method: (§1)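 After 24 hours at 37°C and 5% CO2 in 1536-well plates, cells in DMEM/F12 or RPMI plus 10% FBS received two-drug dose matrices for 72 hours. Viability came from CellTiter-Glo 2.0 luminescence and was scaled as inhibition, anchored at 0 by vehicle wells and at 1 by blank wells. Combination Emax is taken as the second-highest inhibition in the matrix, and Bliss excess as the observed combination effect less EA + EB − EA·EB, with EA and EB the single-agent effects.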
# [2] = tested on: NKM-1 (Acute Myeloid Leukemia); assay: as above
# Summary of the method: as §1
# [3] = tested on: SNU-175 (Colorectal Carcinoma); assay: as above
# Summary of the method: as §1
# ES-2 (Ovarian Carcinoma) = assay: as above
# Summary of the method: as §1
# [4] = tested on: SJRH30 (Rhabdomyosarcoma); assay: as above
# Summary of the method: as §1
# [5] = tested on: OVTOKO (Ovarian Carcinoma); assay: as above
# Summary of the method: as §1
# [6] = tested on: JHH-1 (Hepatocellular Carcinoma); assay: as above
# Summary of the method: as §1
# [7] = tested on: SW684 (Other Solid Carcinomas); assay: as above
# Summary of the method: as §1
# [8] = tested on: CML-T1 (Chronic Myelogenous Leukemia); assay: as above
# Summary of the method: as §1
# [9] = tested on: OCI-AML5 (Acute Myeloid Leukemia); assay: as above
# Summary of the method: as §1
# [10] = tested on: PANC-02-03 (Pancreatic Carcinoma); assay: as above
# Summary of the method: as §1
# [11] = tested on: Caov-3 (Ovarian Carcinoma); assay: as above
# Summary of the method: as §1
# [12] = tested on: AN3-CA (Endometrial Carcinoma); assay: as above
# Summary of the method: as §1
# [13] = tested on: OV-90 (Ovarian Carcinoma); assay: as above
# Summary of the method: as §1
# [14] = tested on: COLO-684 (Endometrial Carcinoma); assay: as above
# Summary of the method: as §1
# [15] = tested on: RMG-I (Ovarian Carcinoma); assay: as above
# Summary of the method: as §1
# CHL-1 (Melanoma) = assay: as above
# Summary of the method: as §1
# [16] = tested on: HTC-C3 (Thyroid Gland Carcinoma); assay: as above
# Summary of the method: as §1
# [17] = tested on: NCI-H1155 (Non-Small Cell Lung Carcinoma); assay: combination Emax (second highest fraction inhibited in the dose matrix, 72 h); higher = more inhibition; extreme values may be limits of the assay
# Summary of the method: as §1
# [18] = tested on: LAMA-84 (Chronic Myelogenous Leukemia); assay: as above
# Summary of the method: as §1
# 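For Bliss excess, mean over the matrix in this document: after 72 h of two-drug dosing.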
Compound,Bliss excess [1],Bliss excess [2],Bliss excess [3],Bliss excess (ES-2 (Ovarian Carcinoma)),Bliss excess [4],Bliss excess [5],Bliss excess [6],Bliss excess [7],Bliss excess [8],Bliss excess [9],Bliss excess [10],Bliss excess [11],Bliss excess [12],Bliss excess [13],Bliss excess [14],Bliss excess [15],Bliss excess (CHL-1 (Melanoma)),Bliss excess [16],combination Emax [17],combination Emax [18]
"CC1(C)CCC(CN2CCN(c3ccc(C(=O)NS(=O)(=O)c4ccc(NCC5CCOCC5)c([N+](=O)[O-])c4)c(Oc4cnc5[nH]ccc5c4)c3)CC2)=C(c2ccc(Cl)cc2)C1 [Venetoclax] + CCN(CCO)CCCOc1ccc2c(Nc3cc(CC(=O)Nc4cccc(F)c4)[nH]n3)ncnc2c1 [AZD2811] (first compound max 1 µM, 7x7, partner max 1 µM)",0.0036,0.0697,-0.0552,-0.0388,0.0544,-0.0183,-0.0166,-0.0043,0.104,-0.0195,-0.0283,-0.0544,0.0345,-0.0546,-0.0358,-0.055,0.0784,-0.0236,0.887,0.594
"CC1(C)CCC(CN2CCN(c3ccc(C(=O)NS(=O)(=O)c4ccc(NCC5CCOCC5)c([N+](=O)[O-])c4)c(Oc4cnc5[nH]ccc5c4)c3)CC2)=C(c2ccc(Cl)cc2)C1 [Venetoclax] + CN(C)CCCOc1ccc(-c2ccc3ncc4c(c3c2)n(C2CCOCC2)c(=O)n4C)cn1 [AZD0156] (first compound max 1 µM, 7x7, partner max 1 µM)",0.0498,-0.0963,-0.0511,0.0069,0.0084,-0.086,-0.042,-0.0333,0.0232,-0.0618,-0.0541,-0.0386,-0.06,-0.041,-0.0356,-0.016,0.0082,-0.0378,0.145,0.339
"CC1(C)CCC(CN2CCN(c3ccc(C(=O)NS(=O)(=O)c4ccc(NCC5CCOCC5)c([N+](=O)[O-])c4)c(Oc4cnc5[nH]ccc5c4)c3)CC2)=C(c2ccc(Cl)cc2)C1 [Venetoclax] + COc1cc(Nc2ncc3c(n2)-c2ccc(Cl)cc2C(c2c(F)cccc2OC)=NC3)ccc1C(=O)O [Alisertib] (first compound max 1 µM, 7x7, partner max 10 µM)",-0.0103,0.0087,0.007,-0.0017,0.0315,-0.0508,0.0308,-0.0688,0.0154,0.17,-0.0527,-0.119,0.0374,-0.0536,-0.0153,-0.0513,0.238,-0.0285,0.809,0.934
"CC1(C)CCC(CN2CCN(c3ccc(C(=O)NS(=O)(=O)c4ccc(NCC5CCOCC5)c([N+](=O)[O-])c4)c(Oc4cnc5[nH]ccc5c4)c3)CC2)=C(c2ccc(Cl)cc2)C1 [Venetoclax] + C[C@@H]1COCCN1C2=NC(=NC(=C2)C3(CC3)[S@](=N)(=O)C)C4=C5C=CNC5=NC=C4 [AZD6738] (first compound max 1 µM, 7x7, partner max 10 µM)",-0.0047,-0.0143,-0.0392,-0.0372,-0.0182,-0.0395,-0.0365,-0.0138,0.0145,0.0391,-0.0199,-0.0574,-0.0068,0.0022,0.005,-0.0178,0.0493,-0.0354,0.829,0.975
"CC1(C)CCC(CN2CCN(c3ccc(C(=O)NS(=O)(=O)c4ccc(NCC5CCOCC5)c([N+](=O)[O-])c4)c(Oc4cnc5[nH]ccc5c4)c3)CC2)=C(c2ccc(Cl)cc2)C1 [Venetoclax] + C[C@@H](Nc1cc(F)cc(F)c1)c1cc(C(=O)N(C)C)cc2c(=O)cc(N3CCOCC3)oc12 [AZD8186] (first compound max 1 µM, 7x7, partner max 3 µM)",-0.0366,0.0937,-0.0201,-0.0199,-0.0248,-0.0535,-0.0413,-0.0862,0.0023,0.0529,-0.0527,-0.0548,-0.0453,-0.0441,-0.261,-0.0274,-0.0397,-0.0236,0.422,0.313
"CC1(C)CCC(CN2CCN(c3ccc(C(=O)NS(=O)(=O)c4ccc(NCC5CCOCC5)c([N+](=O)[O-])c4)c(Oc4cnc5[nH]ccc5c4)c3)CC2)=C(c2ccc(Cl)cc2)C1 [Venetoclax] + Cc1cc2ncnn2cc1Nc1ncc2c(n1)n(C1CCOCC1)c(=O)n2C [AZD7648] (first compound max 1 µM, 7x7, partner max 10 µM)",-0.0225,0.0323,-0.0327,-0.0087,0.0112,-0.0518,-0.0374,-0.0627,-0.0195,-0.0238,-0.0646,-0.159,-0.0108,-0.0639,-0.0205,-0.0277,-0.0264,-0.0197,0.164,0.299
"CC1(C)CCC(CN2CCN(c3ccc(C(=O)NS(=O)(=O)c4ccc(NCC5CCOCC5)c([N+](=O)[O-])c4)c(Oc4cnc5[nH]ccc5c4)c3)CC2)=C(c2ccc(Cl)cc2)C1 [Venetoclax] + Cn1cnc2c(F)c(Nc3ccc(Br)cc3Cl)c(C(=O)NOCCO)cc21 [Selumetinib] (first compound max 1 µM, 7x7, partner max 3 µM)",-0.0241,0.0456,-0.0157,-0.0367,-0.0199,-0.0544,-0.0588,-0.0631,0.0069,0.111,-0.0386,-0.0295,-0.0076,-0.0345,-0.0263,-0.0727,-0.0418,-0.049,0.371,0.707
